Our source for the EC50 values is ChEMBL document CHEMBL5725356, “Anti-fibrotic pyridinones” (2017).

A short description of the experiment: ET-1 Assay: Fibroblasts (primary human lung and dermal, HFL-1, 3T3 etc) are seeded in 96-well plates at ~15000 cells/well and serum starved for 0-48 hours. After media exchange, compounds serially diluted in DMSO are added to the cells. After a brief incubation of ~30 min, stimulants (TGFb, serum, LPA etc) are added followed by further incubation for 16-48 hours. Media is then harvested and stored frozen in plate format for later endothelin-1 (ET-1) determination by ELISA. Toxicity measurements are made using the ATPlite kit (Perkin-Elmer). ET-1 is quantified using an ELISA kit (R&D Systems). The amount of ET-1 produced in the assay wells are back-calculated using the ELISA standard. The ability of a compound to inhibit ET-1 production is typically analyzed by fitting dose-response curves to a 4-parameter logistic function to obtain an EC50 value. The conditions noted are these: HFL1.
Regarding `Cn1cc(-c2cn(-c3ccc(OC(F)(F)F)cc3)c(=O)cc2OCCN2CCOCC2=O)cn1`, the EC50 – broadly, the concentration that produces a half-maximal response – was “in the range around 125 µM”.
On to `Cc1cc(=O)n(-c2ccc(OC(F)(F)F)cc2)cc1-c1cnc2nccn2c1`, for which the 50% effective concentration (EC50) was above 200 µM.
Then `Cn1cc(-c2ccc(=O)n(-c3ccc(OC(F)(F)F)cc3)n2)cn1`, with above 200 µM; and `O=c1c2scnc2c(-c2cn[nH]c2)cn1-c1ccc(OC(F)(F)F)cc1`, with below 50 µM; and `CCCCOC(=O)n1cc(-c2ccc(=O)n(-c3ccccc3)c2)cn1`, with “in the range around 125 µM”.
In the case of `O=C1COCCN1CCOc1cc(=O)n(-c2ccc(OC(F)(F)F)cc2)cc1-c1ccc(F)cc1`, the EC50 result was “in the range around 125 µM”.
On to `Cc1cc(=O)n(-c2ccc(OC(F)(F)F)cc2)cc1-c1ccc(Cl)c(Cl)c1`, for which the EC50 result is “in the range around 125 µM”.
For the compound `Cc1cc(=O)n(-c2ccc(OC(F)(F)F)cc2)cc1-c1ccc2c(c1)OCCO2`, the EC50 result was “in the range around 125 µM”.
With `O=c1ccc(C(F)(F)F)cn1-c1ccc(OC(F)(F)F)cc1`, the EC50 was above 200 µM.
Then `Cc1cc(=O)n(-c2cccc(OC(F)(F)F)c2)cc1-c1cnn(C)c1`, with above 200 µM.
As to `COCCOc1cc(=O)n(-c2ccc(OC(F)(F)F)cc2)cc1-c1cnn(C)c1`, the EC50 was above 200 µM.
As to `Cn1cc(-c2cn(-c3ccc(OC(F)(F)F)cc3)c(=O)cc2NCc2c(Cl)cccc2Cl)cn1`, the EC50 is above 200 µM.
As for `Cn1cc(-c2cn(-c3ccc(OC(F)(F)F)cc3)c(=O)cc2Oc2ccccc2F)cn1`, the EC50 was above 200 µM.
With `O=c1ccc(-c2cncnc2)cn1-c1cccc(F)c1`, the EC50 was above 200 µM.
In the case of `Cn1cc(-c2cn(-c3ccc(OC(F)(F)F)cc3)c(=O)cc2O)cn1`, the EC50 is above 200 µM.
Consider `O=c1ccc(-c2cccc(Cl)c2)cn1-c1cccc(F)c1`, for which the EC50 is below 50 µM.
As for `Cc1cc(=O)n(-c2ccc(OC(F)(F)F)cc2)cc1-c1ccc2[nH]c(=O)oc2c1`, the EC50 was above 200 µM.
With `Cc1cc(=O)n(-c2cccc(OC(F)(F)F)c2)cc1-c1ccc(F)cc1`, the EC50 was below 50 µM.
For `CCn1ccc2c(-c3ccc(F)cc3)cn(-c3ccc(OC(F)(F)F)cc3)c(=O)c21`, the EC50 is below 50 µM.
Turning to `CCOc1ccc(-n2cc(-c3cn[nH]c3)ccc2=O)c(C)c1`, the EC50 is below 50 µM.
`Cn1cc(-c2cn(-c3ccc(OC(F)(F)F)cc3)c(=O)cc2Oc2cccc(F)c2)cn1`: the EC50 was below 50 µM.
With `Cc1cc(=O)n(-c2ccc(OC(F)(F)F)cc2)cc1-c1cccc2c1OCO2`, the EC50 was below 50 µM.
Then `Cc1cc(=O)n(-c2ccc(Cl)cc2C)cc1-c1cnn(C)c1`, with “in the range around 125 µM”; and `CCOc1ccc(CNc2cc(=O)n(-c3ccc(OC(F)(F)F)cc3)cc2-c2cnn(C)c2)cc1`, with below 50 µM.
Regarding `Cc1cc(=O)n(-c2ccc(OC(F)(F)F)cc2)cc1-c1ccccc1`, the EC50 was below 50 µM.
Then `O=c1ccc(-c2ccc(F)cc2)nn1-c1ccc(OC(F)(F)F)cc1`, with above 200 µM.
Then `CCCC(=O)Nc1cc(=O)n(-c2ccc(OC(F)(F)F)cc2)cc1-c1ccc(F)cc1`, with above 200 µM; and `COCCOc1ccc(Oc2cc(=O)n(-c3ccc(OC(F)(F)F)cc3)cc2-c2cnn(C)c2)cc1`, with “in the range around 125 µM”.
Regarding `Cc1cc(=O)n(-c2ccc(C(F)(F)F)cc2)cc1-c1ccc(F)cc1`, the EC50 is above 200 µM.
Then `O=C(Nc1cc(=O)n(-c2ccc(OC(F)(F)F)cc2)cc1-c1ccc(F)cc1)Oc1ccccc1`, with above 200 µM.
On to `Cn1cc(-c2cn(-c3ccc(OC(F)(F)F)cc3)c(=O)cc2Oc2cccc(Cl)c2)cn1`, for which the EC50 was below 50 µM.
Turning to `Cc1n[nH]c(C)c1-c1ccc(=O)n(-c2ccc(OC(F)(F)F)cc2)c1`, the EC50 entry is “in the range around 125 µM”.
With `Cc1cc(=O)n(-c2ccc(OC(F)(F)F)cc2)cc1-c1cccc2[nH]c(=O)oc12`, the EC50 is above 200 µM.
Take `CCOc1ccc(-n2cc(-c3cn[nH]c3)c(C)cc2=O)c(C)c1`: the EC50 entry is “in the range around 125 µM”.
As for `COc1ccc(-c2ccc(=O)n(-c3cccc(OC)c3)c2)cc1`, the EC50 entry was “in the range around 125 µM”.
As to `Cn1cc(-c2cn(-c3ccc(OC(F)(F)F)cc3)c(=O)c3[nH]nnc23)cn1`, the EC50 was below 50 µM.
As to `Cn1cc(-c2cn(-c3ccc(OC(F)(F)F)cc3)c(=O)c3c2ncn3C)cn1`, the EC50 was below 50 µM.
